# Experimental data from patent US20030148954A1, “Agents and methods for modulating activator protein-1-mediated cellular processes” (Wisconsin Alumni Research Foundation, priority 2001, published 2003).
# Legend:
# [1] = tested on: CMV enhancer; test: pCMVβgal β-galactosidase reporter, transient transfection of K562 cells; format: cell-based, human; settings: K562, TPA treatment
# Procedure: (§1) Transient Transfections—K562 cells (5×10^5) were collected by centrifugation at 240×g for 8 min at 4° C. and resuspended in 4 ml of complete IMEM. Plasmid DNAs (1 μg of reporter and 2 μg of effector) were added to 150 μl of IMEM, incubated with Superfect (4 μl/1 μg DNA; Qiagen) for 10 min at room temperature and then added to cells.
# (§2) For each transfection, cells were incubated for 26 h after transfection and then treated with TPA (final concentration: 5 nM) or the vehicle (DMSO). […] Luciferase activity was normalized by the protein content of the lysates, determined by Bradford assay using γ-globulin as a standard.
# [2] = tested on: AP-1; test: EMSA of AP-1 DNA binding activity in nuclear extracts; parameters: species or system human; settings: K562 cells treated with TPA
# Procedure: K562-Babe and K562-NIC-1 cells were harvested by centrifugation for 10 min at 150×g. Cells were washed once with ice-cold PBS and resuspended in 1.5 volumes of nuclei lysis buffer (10 mM Tris-HCl, pH 7.5, 10 mM NaCl, 3 mM MgCl2, and 0.2% Nonidet P-40) on ice for 3 min. Nuclei were collected by centrifugation for 5 min at 600×g. Nuclei were washed by gentle resuspension in 1.5 volumes of nuclei wash buffer (10 mM Tris-HCl, pH 7.5, 10 mM NaCl, and 3 mM MgCl2) and then collected by centrifugation for 4 min at 600×g. […] Nuclei were extracted for 45 min at 4° C. with constant mixing. The suspension was then centrifuged for 30 min at 150,000×g. Aliquots of the supernatant were frozen on dry ice and stored at -80° C. The protein concentration as measured by the Bradford assay, with y-globulin as a standard ranged from 4 to 10 mg/ml. DTT (5 mM), phenylmethanesulfonyl fluoride (0.5 mM), leupeptin (20 μg/ml), β-glycerophosphate (800 μM), sodium vanadate (1 mM), and sodium molybdate (50 μM) were included in all buffers. Electrophoretic Mobility Shift Assay-EMSA assays were done as described previously (54). AP-1 DNA binding activity was measured by EMSA with a double-stranded end-labeled oligonucleotide [NT] containing a high affinity AP-1 binding site. […] DNA binding activity was quantitated by PhosphorImager analysis with ImageQuant software (Molecular Dynamics).
# [3] = tested on: AP-1; test: AP-1 luciferase reporter, transient transfection of HeLa cells; format: cell-based, human
# From the text: (§3) Plasmids—The pBabe-NIC-1 (pNIC-1) expression vector encoding constitutively active Notch-1 (NIC-1) was described previously (36,37,51). This vector was derived from the pBabe-puro retroviral vector and includes a cDNA sequence encoding amino acids 1759-2556 of human Notch-1 with a Myc tag fused to its carboxyl terminus. Human NIC-1 deletion mutants were generated by PCR using a full-length human Notch-1 expression vector as the template. The Notch-dependent reporter plasmid containing four CBF1 binding sites and an simian virus 40 promoter fused to luciferase (p4×CBF1luc) was described previously (52). The AP-1 reporter plasmid (p1×AP1luc) containing a collagenase promoter fragment (−73/+67) with a single AP-1 binding site in the luciferase reporter vector pGL2-basic (Promega) was described previously (53). The NF-κB reporter plasmid (p3×κBluc) containing three NF-κB binding sites and a minimal promoter fused to luciferase was a kind gift of Dr. Shigeki Miyamoto (University of Wisconsin Medical School). […]
# as §2
# [4] = tested on: human Aγ globin promoter; test: pGL3γLuc reporter, transient transfection of K562 cells; format: cell-based; settings: K562, TPA treatment
# Procedure: as §1
# (§4) For each transfection, cells were incubated for 26 h after transfection and then treated with TPA (final concentration: 5 nM) or the vehicle (DMSO). After incubating for another 12 or 16 h, cells were harvested and assayed for luciferase activity. Luciferase activity was normalized by the protein content of the lysates, determined by Bradford assay using γ-globulin as a standard.
# [5] = tested on: IL-8; test: Northern blotting of IL-8 transcripts in K562-Babe and K562-NIC-1 cells; format: cell-based, human; settings: K562-Babe cells, 5 nM TPA 12 h
# Procedure: (§5) Stable Transfection—K562 cells were stably transfected by electroporation with a Bio-Rad Gene pulser electroporator. Cells (5×10^6) were washed with ice-cold PBS, resuspended in 0.5 ml of ice-cold PBS, mixed with 5 μg linearized plasmid DNA, and subjected to electroporation (960 microfarad; 220 V) in a 0.4 cm-wide electroporation cuvette (BTX). pBabe and pNIC-1 were linearized with NotI. Cells were then added to 20 ml of complete IMEM, grown for 48 h, and diluted in complete IMEM containing 1.5 μg/ml puromycin (pools of K562-Babe and K562-NIC-1 cells). Stably transfected cells were analyzed for erythroid differentiation as soon as the pools were generated by benzidine staining to reduce the probability of phenotypic changes that may result from prolonged growth.
# (§6) Northern Blotting—Total RNA from K562-Babe and K562-NIC-1 cells was extracted with Triazol (Life Technologies, Inc.). Ten μg of RNA per sample was electrophoresed on a 1% agarose, 6.6% formaldehyde gel and then transferred overnight to a Magnacharge nylon membrane (Osmonics). RNA was cross-linked to the membrane by UV irradiation. Membranes were prehybridized for 30 min at 60° C. in ExpressHyb hybridization solution (Clontech). […] Radioactivity was quantitated by PhosphorImager analysis with ImageQuant software (Molecular Dynamics).
# [6] = tested on: NF-κB; test: NF-κB luciferase reporter (p3×κBluc), transient transfection of K562 cells; format: cell-based, human
# From the text: as §3, §2
# [7] = tested on: AP-1; test: AP-1 luciferase reporter, transient transfection of K562 cells; format: cell-based, human; settings: K562, p1×AP1luc, no NIC-1
# From the text: Plasmids—The pBabe-NIC-1 (pNIC-1) expression vector encoding constitutively active Notch-1 (NIC-1) was described previously (36,37,51). This vector was derived from the pBabe-puro retroviral vector and includes a cDNA sequence encoding amino acids 1759-2556 of human Notch-1 with a Myc tag fused to its carboxyl terminus. Human NIC-1 deletion mutants were generated by PCR using a full-length human Notch-1 expression vector as the template. The Notch-dependent reporter plasmid containing four CBF1 binding sites and an simian virus 40 promoter fused to luciferase (p4×CBF1luc) was described previously (52). The AP-1 reporter plasmid (p1×AP1luc) containing a collagenase promoter fragment (−73/+67) with a single AP-1 binding site in the luciferase reporter vector pGL2-basic (Promega) was described previously (53). The NF-κB reporter plasmid (p3×κBluc) containing three NF-κB binding sites and a minimal promoter fused to luciferase was a kind gift of Dr. Shigeki Miyamoto (University of Wisconsin Medical School). The pBabe-H-Ras(12V) expression vector encoding constitutively active H-Ras was a kind gift of Dr. Charming Der (University of North Carolina-Chapel Hill). This vector was derived from the pBabe-puro retroviral vector and includes a cDNA encoding H-Ras with a Gly to Val mutation at amino acid 12.
# as §1, §4
# [8] = tested on: MMP1; test: Northern blotting of MMP1 transcripts in K562-Babe and K562-NIC-1 cells; format: cell-based, human; settings: K562-Babe cells, 5 nM TPA 12 h
# Procedure: as §5, §6
smiles,measurement,setting,value
"CCCCCCCCCCCCCC(=O)O[C@@H]1[C@@H](C)[C@@]2(O)[C@@H](C=C(CO)C[C@]3(O)C(=O)C(C)=C[C@@H]23)[C@@H]2C(C)(C)[C@]12OC(C)=O [TPA, reference compound]",increase of pCMVβgal activity,[1],strongly increased
same,induction of AP-1 DNA binding activity,[2],strongly induced
same,induction of AP-1 reporter activity by the activator,[3],strongly induced
same,increase of pGL3γLuc activity,[4],~3 fold
same,induction of IL-8 transcript levels,[5],strongly induced
same,activation of NF-κB reporter gene by the activator,[6],strongly activated
same,induction of AP-1 reporter activity by the activator,[7],strongly induced
same,induction of MMP1 transcript levels,[8],strongly induced
